Results reported in patent publication US5656460A, “α-glycosyl derivative of the catecholamine or its salt, and its preparation and uses” (Kabushiki Kaisha Hayashibara Seibutsu Kagaku Kenkyujo, priority 1992, dated 1997).

Assays:
[1] = Solubility in solvent; type: physicochemical
[2] = system: β-glucosidase; test: Stability against hydrolysis by β-glucosidase; type: in vitro ADME
Excerpt: (6) Stability against hydrolysis

[3] = system: 7-week-old dd mice; test: Acute toxicity test (oral, mice); type: in vivo
Method: The α-glucosyl methyldopa preparations [I] and [II] were tested for their acute toxicity by orally administering them to 7-week-old dd mice.

[4] = Reducing reaction by the Nelson-Somogyi's method; type: physicochemical
Excerpt: The α-glucosyl methyldopa preparations [I] and [II] turn green on the anthrone-sulfuric acid reaction. The preparations are negative on a reducing reaction by the Nelson-Somogy's method;

[5] = Stability in aqueous solution (coloring degree at 400 nm relating to oxidation); type: physicochemical; conditions: 100 mM phosphate buffer pH 8.0, 25° C.; for Stability compared with intact methyldopa: up to 9 days; for Coloring degree at 400 nm: 100 ppm
Method: Fifty ml aliquots of 100 mM phosphate buffer (pH 8.0) were distributed into 50 ml-flasks, added with the α-glucosyl methyldopa preparation [I] or [II] to give a concentration of 100 ppm, allowed to stand at 25° C., and sampled at a prescribed time interval to determine the stability of the preparation.
Intact methyldopa was used as a control. Five ml solution was collected from each flask at a prescribed time interval, and subjected to the measurement of the coloring degree at 400 nm relating to the oxidation of methyldopa.

[6] = system: α-glucosidase (EC 3.2.1.20); test: Stability against hydrolysis by α-glucosidase; type: in vitro ADME, pig; conditions: forms the catecholamine (methyldopa) and D-glucose
Excerpt: (6) Stability against hydrolysis (a) The α-glucosyl methyldopa preparations [I] and [II] are hydrolyzed by α-glucosidase (EC 3.2.1.20) specimen derived from pig liver to form methyldopa and D-glucose;

With CC(N)(Cc1ccc(O[C@H]2O[C@H](CO)[C@@H](O)[C@H](O)[C@H]2O)c(O)c1)C(=O)O (stereo partly drawn) [α-glucosyl methyldopa preparation [II], 3-[3-hydroxy-(4-α-D-glucopyranosyl)]-2-methylalanine] the Solubility in benzen [1] was “insoluble”, the Solubility in chloroform [1] was “insoluble” and the Solubility in ethanol [1] was “slightly soluble”. For the same compound, the Solubility in ether [1] was “insoluble”, the Solubility in methanol [1] was “slightly soluble” and the Solubility in water [1] was “readily soluble”. The “Hydrolysis by β-glucosidase” value [2] was “not hydrolyzed”, the “Acute toxicity: dose up to which no mouse died” value [3] was no less than 5000 mg/kg and the “Reducing reaction / reducing activity” value [4] was “negative”. For the same compound, the “Stability compared with intact methyldopa” value [5] was “much stabler than intact methyldopa”, the “Coloring degree at 400 nm” value ([5]; day 0) was 0.0 and the “Coloring degree at 400 nm” value ([5]; day 1) was 0.0. The “Coloring degree at 400 nm” value ([5]; day 3) was 0.0, the “Coloring degree at 400 nm” value ([5]; day 5) was 0.0 and the “Coloring degree at 400 nm” value ([5]; day 9) was 0.0. For the same compound, the “Hydrolysis by α-glucosidase” value [6] was “hydrolyzed”.
In the case of CC(N)(Cc1ccc(O)c(O[C@H]2O[C@H](CO)[C@@H](O)[C@H](O)[C@H]2O)c1)C(=O)O (stereo partly drawn) [α-glucosyl methyldopa preparation [I], 3-[4-hydroxy-(3-α-D-glucopyranosyl)]-2-methylalanine], the Solubility in benzen [1] is reported as “insoluble”, the Solubility in chloroform [1] is reported as “insoluble” and the Solubility in ethanol [1] is reported as “slightly soluble”. The Solubility in ether [1] was “insoluble”, the Solubility in methanol [1] was “slightly soluble” and the Solubility in water [1] was “readily soluble”. The “Hydrolysis by β-glucosidase” value [2] was “not hydrolyzed”, the “Acute toxicity: dose up to which no mouse died” value [3] was no less than 5000 mg/kg and the “Reducing reaction / reducing activity” value [4] was “negative”. The “Stability compared with intact methyldopa” value [5] was “much stabler than intact methyldopa”, the “Coloring degree at 400 nm” value ([5]; day 0) was 0.0 and the “Coloring degree at 400 nm” value ([5]; day 1) was 0.0. The “Coloring degree at 400 nm” value ([5]; day 3) was 0.0, the “Coloring degree at 400 nm” value ([5]; day 5) was 0.0 and the “Coloring degree at 400 nm” value ([5]; day 9) was 0.0. The “Hydrolysis by α-glucosidase” value [6] was “hydrolyzed”.
